In patent US20150224164A1, “TREATMENT OF AUTISM SPECTRUM DISORDERS USING GLYCYL-L-2-METHYLPROLYL-L-GLUMATIC ACID” (Neuren Pharmaceuticals Limited, priority 2013, published 2015):

How the values were obtained:
[1] = system: cortical neurons injured with okadaic acid; experiment: In vitro neuroprotection, cortical cultures injured with okadaic acid (MTT); assay type: cell-based, rat; settings: 10 μM; okadaic acid injury; 24 hours incubation; MTT-assay
Procedure: A dam was sacrificed by CO2-treatment, and then was prepared for caesarean section. After surgery, the embryos were removed from their amniotic sacs and decapitated. The heads were placed on ice in DMEM/F12 medium for striatum and PBS+0.65% D(+)-glucose for cortex.
The two cortical hemispheres were carefully removed by spatula from the whole brain with the ventral side facing upside into a PBS+0.65% D(+)-glucose containing petri dish. Forceps were put into the rostral part (near B. olfactorius) of the cortex in order to fix the tissue and two lateral-sagittal oriented cuts were made to remove the […] and entorhinal cortices. […]
The cells were triturated once with a glass Pasteur pipette in 1 ml of Neurobasal/B27 medium and subsequently twice by using a 1 ml insulin syringe with a 22 gauge needle. […] Cells were counted and adjusted to 50,000 cells per 60 μl. […]
To cause toxic injury to neurons, we exposed neurons to 1:100 parts of okadaic acid at concentrations of 30 nM or 100 nM and 0.5 mM 3-nitropropionic acid (for cerebellar microexplants only). […] The survival rate was determined by a colorimetric end-point MTT-assay at 595 nm in a multi-well plate reader. For the cerebellar microexplants four windows (field of 0.65 mm^2) with highest cell density were chosen and cells displaying neurite outgrowth were counted.

[2] = Pharmacokinetics after intravenous bolus injection; assay type: in vivo, rat
Procedure: Adult male Wistar rats weighing between 180 and 240 g were used to determine the pharmacokinetics of GPE and G2MePE. To facilitate intravenous bolus injections and blood sampling, all rats were surgically implanted with an indwelling jugular venous cannula under halothane anesthesia three days before the experiment. Groups of six rats were given a single intravenous bolus injection of either 30 mg/kg GPE or 10 mg/kg G2MePE dissolved in 0.1M succinate buffer (pH 6.5). Blood samples (about 220 μl each) were collected into heparinized tubes containing Sigma protease inhibitor cocktail for mammalian tissues at 10 and 0 min before injection of either GPE or G2MePE, and 1, 2, 4, 8, 16, 32, 64 and 128 min after injection of either GPE or G2MePE. The samples were centrifuged at 3000 g for 15 min at 4° C. and the plasma removed and stored at −80° C. until extraction and assay by either radioimmunoassay (“RIA”) or reverse phase HPLC. The RIA and HPLC methods used were conventional.
The k and half-life (t1/2) were calculated from the slope of the linear regression line in the elimination phase of the semi-logarithmic plot of plasma concentration versus time as: Log C=−kt/2.3+log C0. Results were expressed as mean±standard error.

MeCP2 knock-out mice = settings: MeCP2 knock-out model; cited from earlier work

NCC(=O)N1CCC[C@H]1C(=O)N[C@@H](CCC(=O)O)C(=O)O [GPE, glycyl-L-prolyl-L-glutamic acid, reference compound]
neuroprotection [1]: 64% | degradation ([2]; in vivo and in vitro): rapidly degraded | first order rate constant ([2]; single i.v. bolus, GPE 30 mg/kg, G-2-MePE 10 mg/kg): 0.15 ± 0.014 min⁻¹ | peak plasma concentration ([2]; single i.v. bolus, GPE 30 mg/kg, G-2-MePE 10 mg/kg, mean±standard error): 40 ± 10.8 µg/mL | life span and neuronal function (MeCP2 knock-out mice): prolong life and increase neuronal function
